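GI50 marks 50% less growth. The concentration for full growth arrest is given as TGI.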
What was measured:
Experiment in all cases: NCI tumour cell line growth inhibition, 384-well format
OVCAR-4 ovarian = system: OVCAR-4 ovarian
CCRF-CEM leukemia = system: CCRF-CEM leukemia
NCI-H226 lung = system: NCI-H226 lung
U251 glioblastoma = system: U251 glioblastoma
NCI-H23 lung = system: NCI-H23 lung
SF-295 CNS = system: SF-295 CNS
HCC-2998 colon = system: HCC-2998 colon
SF-268 CNS = system: SF-268 CNS
KM12 colon = system: KM12 colon
A498 renal = system: A498 renal
HT29 colon = system: HT29 colon
SR leukemia = system: SR leukemia
SN12C renal = system: SN12C renal
K-562 leukemia = system: K-562 leukemia
TK-10 renal = system: TK-10 renal
NCI-H460 NSCLC = system: NCI-H460 NSCLC
T-47D breast = system: T-47D breast
UO-31 renal = system: UO-31 renal
OVCAR-8 ovarian = system: OVCAR-8 ovarian
MCF7 breast = system: MCF7 breast
BT-549 breast = system: BT-549 breast
ACHN renal = system: ACHN renal
LOX IMVI melanoma = system: LOX IMVI melanoma
MOLT-4 leukemia = system: MOLT-4 leukemia
COLO 205 colon = system: COLO 205 colon
MDA-MB-468 breast = system: MDA-MB-468 breast
HOP-92 NSCLC = system: HOP-92 NSCLC
UACC-257 melanoma = system: UACC-257 melanoma
NCI/ADR-RES ovarian = system: NCI/ADR-RES ovarian
OVCAR-5 ovarian = system: OVCAR-5 ovarian
MDA-MB-231 breast = system: MDA-MB-231 breast
SK-MEL-2 melanoma = system: SK-MEL-2 melanoma
RXF 393 renal = system: RXF 393 renal
M14 melanoma = system: M14 melanoma
UACC-62 melanoma = system: UACC-62 melanoma
NCI-H322M lung = system: NCI-H322M lung
SK-OV-3 ovarian = system: SK-OV-3 ovarian
SNB-19 CNS = system: SNB-19 CNS
MALME-3M melanoma = system: MALME-3M melanoma
CAKI-1 renal = system: CAKI-1 renal
786-0 renal = system: 786-0 renal
OVCAR-3 ovarian = system: OVCAR-3 ovarian
HCT-15 colon = system: HCT-15 colon
NCI-H522 lung = system: NCI-H522 lung
SK-MEL-28 melanoma = system: SK-MEL-28 melanoma
HOP-62 NSCLC = system: HOP-62 NSCLC
SW-620 colon = system: SW-620 colon
A549 NSCLC = system: A549 NSCLC
IGROV1 ovarian = system: IGROV1 ovarian
PC-3 prostate = system: PC-3 prostate
RPMI-8226 leukemia = system: RPMI-8226 leukemia
HL-60(TB) leukemia = system: HL-60(TB) leukemia
MDA-MB-435 melanoma = system: MDA-MB-435 melanoma
SF-539 CNS = system: SF-539 CNS
HCT-116 colon = system: HCT-116 colon
DU-145 prostate = system: DU-145 prostate
SK-MEL-5 melanoma = system: SK-MEL-5 melanoma
HS 578T breast = system: HS 578T breast
SNB-75 CNS = system: SNB-75 CNS
EKVX NSCLC = system: EKVX NSCLC

## Cc1cc(C(=O)NC(C)(C)C)cc(C#Cc2ccc3c4c(oc3c2)C(C)(C)c2cc(NS(C)(=O)=O)ccc2C4=O)n1
OVCAR-4 ovarian
  GI50: 1.34 µM
  TGI: 6.33 µM
CCRF-CEM leukemia
  GI50: 1.26 µM
  TGI: 2.83 µM
NCI-H226 lung
  GI50: 1.31 µM
  TGI: 5.41 µM
U251 glioblastoma
  GI50: 1.89 µM
  TGI: > 100 µM
NCI-H23 lung
  GI50: 0.602 µM
  TGI: 2.63 µM
SF-295 CNS
  GI50: 1.33 µM
  TGI: 3.88 µM
HCC-2998 colon
  GI50: 1.73 µM
  TGI: 8.55 µM
SF-268 CNS
  GI50: 2.17 µM
  TGI: > 100 µM
KM12 colon
  TGI: 1.02 µM
A498 renal
  GI50: 0.833 µM
  TGI: 4.66 µM
HT29 colon
  GI50: 0.774 µM
  TGI: 3.06 µM
SR leukemia
  GI50: 0.198 µM
  TGI: 0.42 µM
SN12C renal
  GI50: 0.934 µM
  TGI: > 100 µM
K-562 leukemia
  GI50: 1.31 µM
  TGI: > 100 µM
TK-10 renal
  GI50: 1.8 µM
  TGI: 29.2 µM
NCI-H460 NSCLC
  GI50: 1.18 µM
  TGI: 3.02 µM
T-47D breast
  GI50: 0.631 µM
  TGI: 2.27 µM
UO-31 renal
  GI50: 0.365 µM
  TGI: 1.71 µM
OVCAR-8 ovarian
  GI50: 1.81 µM
  TGI: 6.23 µM
MCF7 breast
  GI50: 0.985 µM
  TGI: 4.35 µM
BT-549 breast
  GI50: 1.15 µM
  TGI: 4.82 µM
ACHN renal
  GI50: 0.815 µM
  TGI: 8.3 µM
LOX IMVI melanoma
  GI50: 3.2 µM
  TGI: 7.42 µM
MOLT-4 leukemia
  GI50: 0.565 µM
  TGI: 1.7 µM
COLO 205 colon
  GI50: 1.28 µM
  TGI: 3.42 µM
MDA-MB-468 breast
  GI50: 0.985 µM
  TGI: 2.85 µM
HOP-92 NSCLC
  GI50: 0.198 µM
  TGI: 0.98 µM
UACC-257 melanoma
  GI50: 0.977 µM
  TGI: 3.07 µM
NCI/ADR-RES ovarian
  GI50: 1.59 µM
  TGI: 4.17 µM
OVCAR-5 ovarian
  GI50: 2.08 µM
  TGI: 9.85 µM
MDA-MB-231 breast
  GI50: 3.45 µM
  TGI: > 100 µM
SK-MEL-2 melanoma
  GI50: 0.496 µM
  TGI: 3.1 µM
RXF 393 renal
  GI50: 0.188 µM
  TGI: 0.41 µM
M14 melanoma
  GI50: 1.08 µM
  TGI: 3.34 µM
UACC-62 melanoma
  GI50: 0.673 µM
  TGI: 3.96 µM
NCI-H322M lung
  GI50: 2.67 µM
  TGI: > 100 µM
SK-OV-3 ovarian
  GI50: 1.93 µM
  TGI: 7.04 µM
SNB-19 CNS
  GI50: 2.92 µM
  TGI: > 100 µM
MALME-3M melanoma
  GI50: 0.695 µM
  TGI: 3.01 µM
CAKI-1 renal
  GI50: 0.549 µM
  TGI: 4.11 µM
786-0 renal
  GI50: 0.642 µM
  TGI: 2.2 µM
OVCAR-3 ovarian
  GI50: 1.46 µM
  TGI: 4.42 µM
HCT-15 colon
  GI50: 0.862 µM
  TGI: > 100 µM
NCI-H522 lung
  GI50: 0.813 µM
  TGI: 4.13 µM
SK-MEL-28 melanoma
  GI50: 0.971 µM
  TGI: 5.51 µM
HOP-62 NSCLC
  GI50: 2.13 µM
  TGI: 6.76 µM
SW-620 colon
  GI50: 1.26 µM
  TGI: 3.54 µM
A549 NSCLC
  GI50: 2.27 µM
  TGI: > 100 µM
IGROV1 ovarian
  GI50: 2.15 µM
  TGI: > 100 µM
PC-3 prostate
  GI50: 2.47 µM
  TGI: 9.21 µM
RPMI-8226 leukemia
  GI50: 0.168 µM
  TGI: 0.41 µM
HL-60(TB) leukemia
  GI50: 0.591 µM
  TGI: 1.78 µM
MDA-MB-435 melanoma
  GI50: 0.41 µM
  TGI: 2.03 µM
SF-539 CNS
  GI50: 1.16 µM
  TGI: 5.93 µM
HCT-116 colon
  GI50: 1.02 µM
  TGI: > 100 µM
DU-145 prostate
  GI50: 1.48 µM
  TGI: 8.91 µM
SK-MEL-5 melanoma
  GI50: 0.913 µM
  TGI: 2.16 µM

## CN(C)C(=O)c1ccc(SC(=S)NCc2ccccc2)cc1
OVCAR-4 ovarian
  GI50: 15.7 µM
  TGI: 29.2 µM
CCRF-CEM leukemia
  GI50: 1.63 µM
  TGI: 3.05 µM
NCI-H226 lung
  GI50: 2.63 µM
  TGI: 6.33 µM
U251 glioblastoma
  GI50: 3.55 µM
  TGI: 9.29 µM
NCI-H23 lung
  GI50: 3.17 µM
  TGI: 8.36 µM
SF-295 CNS
  GI50: 12.1 µM
  TGI: 24.6 µM
HCC-2998 colon
  GI50: 4.77 µM
  TGI: 13.6 µM
SF-268 CNS
  GI50: 3.83 µM
  TGI: 10.8 µM
KM12 colon
  GI50: 1.67 µM
  TGI: 8.91 µM
A498 renal
  GI50: 3.78 µM
  TGI: 10.3 µM
HT29 colon
  GI50: 1.8 µM
  TGI: 3.25 µM
SN12C renal
  GI50: 2.45 µM
  TGI: 6.12 µM
K-562 leukemia
  GI50: 10.6 µM
  TGI: 22.5 µM
TK-10 renal
  GI50: 2.87 µM
  TGI: 6.13 µM
NCI-H460 NSCLC
  GI50: 2.73 µM
  TGI: 6.45 µM
HS 578T breast
  GI50: 2.77 µM
  TGI: 5.81 µM
OVCAR-8 ovarian
  GI50: 2.15 µM
  TGI: 4.31 µM
MCF7 breast
  GI50: 2.36 µM
  TGI: 10.6 µM
BT-549 breast
  GI50: 2.39 µM
  TGI: 4.6 µM
ACHN renal
  GI50: 3.24 µM
  TGI: 8.66 µM
LOX IMVI melanoma
  GI50: 2.07 µM
  TGI: 4.09 µM
MOLT-4 leukemia
  GI50: 1.64 µM
  TGI: 3.09 µM
COLO 205 colon
  GI50: 4.72 µM
  TGI: 15.1 µM
MDA-MB-468 breast
  GI50: 0.701 µM
  TGI: 1.33 µM
HOP-92 NSCLC
  GI50: 2.72 µM
  TGI: 7.17 µM
UACC-257 melanoma
  GI50: 2.9 µM
  TGI: 5.66 µM
NCI/ADR-RES ovarian
  GI50: 2.96 µM
  TGI: 6.23 µM
SK-MEL-2 melanoma
  GI50: 1.54 µM
  TGI: 2.98 µM
RXF 393 renal
  GI50: 1.83 µM
  TGI: 3.34 µM
SNB-75 CNS
  GI50: 4.09 µM
  TGI: 7.63 µM
M14 melanoma
  GI50: 2.36 µM
  TGI: 5.32 µM
UACC-62 melanoma
  GI50: 2.09 µM
  TGI: 3.61 µM
NCI-H322M lung
  GI50: 5.05 µM
  TGI: 15.7 µM
SK-OV-3 ovarian
  GI50: 6.26 µM
  TGI: 18.1 µM
SNB-19 CNS
  GI50: 3.37 µM
  TGI: 9.21 µM
MALME-3M melanoma
  GI50: 3.15 µM
  TGI: 5.52 µM
CAKI-1 renal
  GI50: 2.92 µM
  TGI: 9.76 µM
786-0 renal
  GI50: 1.99 µM
  TGI: 3.6 µM
OVCAR-3 ovarian
  GI50: 3.8 µM
  TGI: 11.4 µM
HCT-15 colon
  GI50: 1.9 µM
  TGI: 3.53 µM
NCI-H522 lung
  GI50: 3.18 µM
  TGI: 7.34 µM
SK-MEL-28 melanoma
  GI50: 2.52 µM
  TGI: 4.91 µM
HOP-62 NSCLC
  GI50: 1.9 µM
  TGI: 3.87 µM
SW-620 colon
  GI50: 2.87 µM
  TGI: 10.1 µM
A549 NSCLC
  GI50: 7.98 µM
  TGI: 21 µM
IGROV1 ovarian
  GI50: 2.48 µM
  TGI: 6.77 µM
EKVX NSCLC
  GI50: 13.4 µM
  TGI: 26.3 µM
PC-3 prostate
  GI50: 3.64 µM
  TGI: 9.17 µM
RPMI-8226 leukemia
  GI50: 0.458 µM
  TGI: 1.22 µM
HL-60(TB) leukemia
  GI50: 0.364 µM
  TGI: 1.15 µM
MDA-MB-435 melanoma
  GI50: 2.23 µM
  TGI: 5.21 µM
SF-539 CNS
  GI50: 1.77 µM
  TGI: 3.29 µM
HCT-116 colon
  GI50: 3.51 µM
  TGI: 8.81 µM
DU-145 prostate
  GI50: 5.09 µM
  TGI: 15 µM
SK-MEL-5 melanoma
  GI50: 1.91 µM
  TGI: 3.38 µM

— PubChem BioAssay (NCI)
